Source: ChEMBL document CHEMBL1287695, “Cholesterol-derived novel anti-apoptotic agents on the structural basis of ginsenoside Rk1” (Bioorg Med Chem Lett, 2010)
Active and inactive are the calls of the source. The rule behind the calls is not given here.

Tests used:
Assay type in all cases: functional, cell-based
Details in all cases: Homo sapiens
HUVEC [1] = test: Antiapoptotic activity against HUVEC cells at 5 ug/ml after 48 hrs by MTT calorimetric assay
HUVEC [2] = test: Antiapoptotic activity against HUVEC cells at 5 ug/ml after 24 hrs by MTT calorimetric assay
HUVEC [3] = test: Antiapoptotic activity against HUVEC cells at 10 ug/ml after 24 hrs by MTT calorimetric assay
HUVEC [4] = test: Antiapoptotic activity against HUVEC cells at 10 ug/ml after 48 hrs by MTT calorimetric assay
HUVEC [5] = test: Antiapoptotic activity against HUVEC cells assessed as inhibition of DNA condensation and fragmentation after 48 hrs by DAPI staining
HUVEC [6] = test: Antiapoptotic activity against HUVEC cells assessed as inhibition of DNA condensation and fragmentation after 48 hrs by TUNEL assay
HREC = test: Antiapoptotic activity against HREC cells assessed as cell viability after 48 hrs

Compound | Activity (HUVEC [1]) | Activity (HUVEC [2]) | Activity (HUVEC [3]) | Activity (HUVEC [4]) | Activity (HUVEC [5]) | Activity (HUVEC [6]) | Activity (HREC)
CC(C)CCC[C@@H](C)[C@H]1CC[C@H]2[C@@H]3CC=C4C[C@@H](OC/C=C/CO)CC[C@]4(C)[C@H]3CC[C@]12C | Active | Active |  |  |  |  | 
COC[C@H]1O[C@@H](O[C@H]2CC[C@@]3(C)C(=CC[C@H]4[C@@H]5CC[C@H]([C@H](C)CCCC(C)C)[C@@]5(C)CC[C@@H]43)C2)C=C[C@@H]1OC | Active | Active | Active | Active |  |  | 
CC(=O)OC[C@H]1O[C@@H](O[C@H]2CC[C@@]3(C)C(=CC[C@H]4[C@@H]5CC[C@H]([C@H](C)CCCC(C)C)[C@@]5(C)CC[C@@H]43)C2)C=C[C@@H]1OC(C)=O | Active | Active | Active | Active | Active | Active | Active
CC(C)CCC[C@@H](C)[C@H]1CC[C@H]2[C@@H]3CC=C4C[C@@H](O[C@H]5CCCCO5)CC[C@]4(C)[C@H]3CC[C@]12C | Active | Active | Active | Active | Active | Active | Active
C=CCO[C@H]1CC[C@@]2(C)C(=CC[C@H]3[C@@H]4CC[C@H]([C@H](C)CCCC(C)C)[C@@]4(C)CC[C@@H]32)C1 | Active | Active |  |  |  |  | 
C=C(CCC=C(C)C)[C@H]1CC[C@]2(C)[C@@H]1[C@H](O)C[C@@H]1[C@@]3(C)CC[C@H](O[C@@H]4O[C@H](CO)[C@@H](O)[C@H](O)[C@H]4O[C@@H]4O[C@H](CO)[C@@H](O)[C@H](O)[C@H]4O)C(C)(C)[C@@H]3CC[C@]12C | Active | Active | Active | Active |  |  | 
CC(C)CCC[C@@H](C)[C@H]1CC[C@H]2[C@@H]3CC=C4C[C@@H](O[C@H]5C=C[C@H](O)[C@@H](CO)O5)CC[C@]4(C)[C@H]3CC[C@]12C | inactive | inactive | inactive | inactive |  |  | 
CC(C)CCC[C@@H](C)[C@H]1CC[C@H]2[C@@H]3CC=C4C[C@@H](Oc5ccc6ccccc6c5)CC[C@]4(C)[C@H]3CC[C@]12C | Active | Active |  |  |  |  | 
COC[C@H]1O[C@@H](O[C@H]2CC[C@@]3(C)C(=CC[C@H]4[C@@H]5CC[C@H]([C@H](C)CCCC(C)C)[C@@]5(C)CC[C@@H]43)C2)C[C@@H](OC)[C@@H]1OC | inactive | inactive | inactive | inactive |  |  | 
COCCOCO[C@H]1CC[C@@]2(C)C(=CC[C@H]3[C@@H]4CC[C@H]([C@H](C)CCCC(C)C)[C@@]4(C)CC[C@@H]32)C1 | Active | Active |  |  |  |  | 
CC(C)CCC[C@@H](C)[C@H]1CC[C@H]2[C@@H]3CC=C4C[C@@H](O[C@H]5C[C@@H](O)[C@H](O)[C@@H](CO)O5)CC[C@]4(C)[C@H]3CC[C@]12C | Active | Active | Active | Active |  |  | 
CC(C)CCC[C@@H](C)[C@H]1CC[C@H]2[C@@H]3CC=C4C[C@@H](O[C@@H]5O[C@H](CO)[C@@H](O)[C@H](O)[C@H]5O)CC[C@]4(C)[C@H]3CC[C@]12C | inactive | inactive | inactive | inactive |  |  | 
